According to patent US7005447B2, “Food product comprising hydroxymatairesinol” (Hormos Nutraceutical Oy Ltd., priority 1999, dated 2006):

How the values were obtained:
aromatase = target: T1, aromatase (Homo sapiens, UniProt P11511); assay: Aromatase inhibiting capacity in JEG-3 cells (3H-17β-estradiol formation from 3H-androstenedione); format: cell-based; conditions: 4 h incubation, FIG. 1
T1 construct: 800 μl cell suspension (1 million cells); endogenous in cells; host or cells: JEG-3 human choriocarcinoma cells
T1 sequence (P11511 1-503): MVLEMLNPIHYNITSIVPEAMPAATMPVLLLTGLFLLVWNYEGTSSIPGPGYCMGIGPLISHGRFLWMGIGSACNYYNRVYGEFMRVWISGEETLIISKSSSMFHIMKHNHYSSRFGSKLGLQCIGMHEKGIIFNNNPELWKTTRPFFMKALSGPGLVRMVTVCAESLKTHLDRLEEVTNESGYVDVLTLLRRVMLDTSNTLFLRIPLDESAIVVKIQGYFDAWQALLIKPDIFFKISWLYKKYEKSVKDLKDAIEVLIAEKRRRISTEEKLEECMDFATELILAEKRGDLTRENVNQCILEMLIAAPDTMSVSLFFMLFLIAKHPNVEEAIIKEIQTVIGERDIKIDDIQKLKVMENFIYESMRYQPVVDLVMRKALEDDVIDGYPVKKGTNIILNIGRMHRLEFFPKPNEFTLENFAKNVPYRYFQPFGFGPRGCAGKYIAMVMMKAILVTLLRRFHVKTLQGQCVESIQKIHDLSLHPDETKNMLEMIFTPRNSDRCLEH
Method: The effects of HMR and structurally related lignans (enterolactone, enterodiol and 7-hydroxyenterolactone) were studied on formation of ^3H-17β-estradiol from ^3H-andostenedione in JEG-3 cells, human choriocarcinoma cell line. […] Cells were maintained in DMEM containing 10% fetal calf serum (FCS). The incubation mixture contained 50 μl ^3H-androst-4-ene, 3,17-dione (0.5 nM), 50 μl unlabelled androstenedione (0.5 nM), 100 μl test compounds (10 mM) and 800 μl cell suspension (1 million cells). After the incubation for 4 h, unlabelled carriers (androstenedione, testosterone, 17β-estradiol and estrone) were added. The steroids were extracted twice with 3.0 ml dichloromethane. […] The column system consisted of a guard column followed by a C18 150×3.9 mm ID analytical column (Technopak 10 C18 HPLC Technology; Wellington House, Cheshire, UK). The mobile phase was acetonitrile/water (35/65) and the flow rate was 1.2 ml/min. For in-line detection of the radioactive metabolites, the eluent of the HPCL column was continuously mixed with liquid scintillant and then monitored with in-line radioactivity detector.

MCF-7 cells = assay: Estrogenic and antiestrogenic activity in MCF-7 cell proliferation assay; format: cell-based, human; design: Estrogenic activity, cell proliferation: dose or concentration left out as unconfirmed; conditions: 5 to 7 days, FIG. 2
Method: The MCF-7 cell line (human breast cancer cells) stock cultures were grown in phenol red free RPMI medium supplemented with 5% FCS, 100 U/ml penicillin and 100 μg/ml streptomycin, 10 μg/ml insulin and 1 nM 17β-estradiol in T-75 cell culture bottles. The medium was replaced with fresh ones three times per week. The stock cultures were harvested by trypsinization and suspended in 10 ml phenol red free versene solution and cenitifuged for 5 min 800 rpm. The cell pellet was carefully resuspended into RPMI medium supplemented with 5% dextran charcoal stripped FCS (dcFCS) and seeded on 6 well plates 50 000 cells/3.0 ml medium/well. On the second day of culture the medium was changed and test compounds were added. To test the estrogenicity of the lignan compounds, they were diluted in ethanol and added to cell cultures in final concentration of […]. In each proliferation assay 1.0 nM 17β-estradiol solution in ethanol was used as a positive control for estrogenic response. Equal amounts of ethanol were added to control wells. To test the antiestrogenicity both 17β-estradiol and lignan solutions were added to cell cultures. The cells were cultured for 5 to 7 days in the presence of test compounds, and the medium was changed every second day. Cell proliferation was quantified by counting the released nuclei with Coulter counter.

[1] = system: DMBA-induced mammary gland tumors; assay: Antitumor activity in rat DMBA-induced mammary cancer model; format: in vivo
Method: Antitumor activity of HMR in rat mammary cancer was studied as described earlier ([…] et al. 1986). Fifty-day-old female Sprague-Dawley rats were given 12.0 mg DMBA (dimethylbentz[a]anthracene) by […]. After approximately 6 weeks palpable tumors could be detected, whereafter the width (w) and the length (1) of the tumors were measured once a week to determine the tumor volumes according to a formula V=(πw^2 l)/12. The rats were also weighed once a week. The rats were allocated in 3 different groups so that the total number of tumors in the beginning of the experiment was similar in each group: (1) Control group 8 animals, (2) HMR 3.0 mg/kg 7 animals, and (3) HMR 15.0 mg/kg 7 animals, one of which had to be killed before the end of the experiment. HMR was given per os starting 9 weeks after the DMBA-induction, i.e. 3 weeks after palpable tumors appeared, and was given daily for 7.5 weeks. At the end of the experiment the tumors were classified in groups according to their growth pattern: 1. Growing tumors (PD=progressive disease); 2. Non-growing, stabilized tumors (SD=stabilized disease, no change in tumor volume or regression less than 75%; 3. Regressing tumors (PR=partial response, regression of tumor volume more than 75%); 4. Disappeared tumors (CR=complete response, no palpable tumor).

[2] = system: uterine growth of immature rats; assay: Immature rat uterotropic test; format: in vivo; conditions: 7 days treatment, FIG. 3
Method: The estrogenicity HMR was evaluated by the uterotropic assay in immature rats which was performed as described earlier (Jordan et al. 1977), with the exception of treatment time which was 7 days instead of 3 days in the reference study. The treatment time was longer because of the expected weak estrogenicity of the test compound. The treatment of immature rats with an aromatase inhibitor (MPV-2213 ad), which prevents biosynthesis of estradiol, was used as a methodological control for non-estrogen-stimulated uterus.

[3] = system: low density lipoprotein (LDL) oxidation; assay: Inhibition of LDL oxidation (CuCl2-induced, absorbance at 234 nm); format: biochemical; conditions: CuCl2, 3 hrs at +37° C.; read-out: Inhibition of LDL oxidation, IC-50
Method: Inhibition of LDL oxidation was estimated as described by Ahotupa et al, 1996. Shortly: LDL was isolated by precipitation with buffered heparin. After resuspendation in phosphate buffer, 20 mM CuCl2 was added and the mixture was incubated for 3 hrs at +37° C. After this, LDL lipids were extracted with chloroform-methanol, dried under nitrogen, redissolved in cyclohexane and analyzed spectrophotometrically at 234 nm. The intensity of absorbance is indicative of LDL oxidation. To test the ability of different compounds to prevent LDL oxidation, the compounds were added to the incubation mixture prior addition of CuCl2. Possible interference of test compounds with the assay procedure was excluded by measuring the absorption at 234 nm before and after the incubation period.

Compound: COc1cc(CC2C(=O)OCC2C(O)c2ccc(O)c(OC)c2)ccc1O (centres unmarked) [HMR, hydroxymatairesinol]
- Inhibition of aromatization (3H-17β-estradiol formation from 3H-androstenedione) (aromatase): no inhibitory effects
- Estrogenic activity, cell proliferation (MCF-7 cells; MCF-7, lignan alone): very weak, not statistically significant
- Antiestrogenic activity, cell proliferation (MCF-7 cells; MCF-7, lignan together with 17β-estradiol): very weak, not statistically significant
- Dose-dependency of antitumor action ([1]; HMR 3.0 versus 15.0 mg/kg): no clear dose-dependency
- Antitumor effect (growing versus stable, regressing and disappeared tumors) ([1]; female Sprague-Dawley rats, HMR 3.0 and 15.0 mg/kg per os daily for 7.5 weeks, FIG. 4): statistically very significant
- Antiestrogenic effect (reduction of uterine weight gain) [2]: no antiestrogenic effect
- Estrogenic effect on uterine weight gain [2]: no significant estrogenic effect
- IC50 [3]: 2000 nM
